SMILES strings stand for the structures.

The target in the test is T1, ΔF508-CFTR (Homo sapiens, UniProt P13569, DEL508-508).
T1 construct: expressed in transfected cells
The test is described as follows: Membrane potential optical (FRET/VIPR) assay, identification of potentiator compounds. It counts as cell-based. Particulars: Table 3, assay not given; for % Activity: relative efficacy. In a few lines:
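Double-addition potentiator screen: compound delivered in gluconate-substituted Cl^--free medium, membrane potential followed via CC2-DMPE/DiSBAC2(3) FRET on VIPR. Cells were ΔF508-CFTR-expressing NIH3T3 mouse fibroblasts, held 2 h at 37° C. then 24 h at 27° C. before assay.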

T1 sequence (P13569 with tags, fused parts or gaps DEL508-508): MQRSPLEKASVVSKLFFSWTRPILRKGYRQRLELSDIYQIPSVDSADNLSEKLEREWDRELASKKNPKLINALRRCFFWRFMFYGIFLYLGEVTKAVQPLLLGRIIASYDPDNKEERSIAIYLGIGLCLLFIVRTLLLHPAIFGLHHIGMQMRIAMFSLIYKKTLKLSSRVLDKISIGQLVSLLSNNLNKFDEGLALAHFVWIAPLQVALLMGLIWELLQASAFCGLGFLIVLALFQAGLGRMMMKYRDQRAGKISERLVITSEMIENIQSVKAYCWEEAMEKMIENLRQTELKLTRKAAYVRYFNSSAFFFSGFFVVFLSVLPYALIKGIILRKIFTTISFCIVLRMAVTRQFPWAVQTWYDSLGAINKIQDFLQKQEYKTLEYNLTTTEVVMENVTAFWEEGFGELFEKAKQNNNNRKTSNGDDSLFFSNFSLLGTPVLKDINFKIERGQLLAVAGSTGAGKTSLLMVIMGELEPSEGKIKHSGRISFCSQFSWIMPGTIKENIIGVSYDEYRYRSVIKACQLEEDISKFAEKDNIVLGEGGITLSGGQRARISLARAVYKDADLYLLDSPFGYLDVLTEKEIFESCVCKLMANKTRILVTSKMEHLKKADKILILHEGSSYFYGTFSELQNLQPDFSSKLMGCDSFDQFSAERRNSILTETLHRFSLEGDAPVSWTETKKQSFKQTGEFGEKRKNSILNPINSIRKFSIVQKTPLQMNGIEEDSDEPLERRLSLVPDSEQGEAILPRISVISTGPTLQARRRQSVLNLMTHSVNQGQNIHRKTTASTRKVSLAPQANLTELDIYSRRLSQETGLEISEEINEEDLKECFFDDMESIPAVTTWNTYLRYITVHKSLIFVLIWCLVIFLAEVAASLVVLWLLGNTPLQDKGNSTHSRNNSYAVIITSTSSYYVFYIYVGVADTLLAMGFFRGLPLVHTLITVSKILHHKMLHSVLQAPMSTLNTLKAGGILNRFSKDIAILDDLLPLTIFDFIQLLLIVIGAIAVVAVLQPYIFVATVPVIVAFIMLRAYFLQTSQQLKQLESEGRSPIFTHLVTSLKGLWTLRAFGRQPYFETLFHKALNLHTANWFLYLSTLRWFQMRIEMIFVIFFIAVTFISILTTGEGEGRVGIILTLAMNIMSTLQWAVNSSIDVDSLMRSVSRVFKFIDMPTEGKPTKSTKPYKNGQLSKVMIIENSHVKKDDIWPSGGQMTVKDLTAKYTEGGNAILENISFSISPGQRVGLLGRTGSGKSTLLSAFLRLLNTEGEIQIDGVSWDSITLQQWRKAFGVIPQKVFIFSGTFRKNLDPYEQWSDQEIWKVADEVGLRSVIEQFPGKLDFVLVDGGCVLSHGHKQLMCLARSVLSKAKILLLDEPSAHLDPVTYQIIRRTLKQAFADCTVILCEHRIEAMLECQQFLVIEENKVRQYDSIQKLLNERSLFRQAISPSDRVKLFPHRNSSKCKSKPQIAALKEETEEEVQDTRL

By EC50 is commonly meant the concentration giving half of the maximal effect. Take `O=C(Nc1ccc(N2CCC[C@H]2CO)cc1C(F)(F)F)c1c[nH]c2ccccc2c1=O` [Compound 634, (S)-N-(4-(2-(hydroxymethyl)pyrrolidin-1-yl)-2-(trifluoromethyl)phenyl)-4-oxo-1,4-dihydroquinoline-3-carboxamide]: the EC50 is < 10 µM and the “% Activity” value is “++ (between 25% to 100%)”.

Consider `O=C(Nc1ccc(C(F)(F)F)cc1Cl)c1c[nH]c2cccc(O)c2c1=O` [Compound 635, N-[2-chloro-4-(trifluoromethyl)phenyl]-5-hydroxy-4-oxo-1H-quinoline-3-carboxamide], for which the EC50 is < 10 µM and the “% Activity” value is given as “++ (between 25% to 100%)”.

As to `O=C(Nc1ccc(C(F)(F)F)cc1Cl)c1c[nH]c2ccc(F)cc2c1=O` [Compound 636, N-[2-chloro-4-(trifluoromethyl)phenyl]-6-fluoro-4-oxo-1H-quinoline-3-carboxamide], the EC50 is < 10 µM and the “% Activity” value is on record as “+ (<25%)”.

Take `Cc1cccc2c(=O)c(C(=O)Nc3ccc(C(C)C)cc3C(F)(F)F)c[nH]c12` [Compound 637, N-[4-isopropyl-2-(trifluoromethyl)phenyl]-8-methyl-4-oxo-1H-quinoline-3-carboxamide]: the EC50 is < 10 µM and the “% Activity” value is listed as “+ (<25%)”.

For `CC(C)(C)c1cc(F)c(NC(=O)c2c[nH]c3c(C(F)(F)F)cccc3c2=O)cc1O` [Compound 638, N-(2-fluoro-5-hydroxy-4-tert-butyl-phenyl)-4-oxo-8-(trifluoromethyl)-1H-quinoline-3-carboxamide], the EC50 was < 10 µM and the “% Activity” value was “+ (<25%)”.

On to `CC(C)N1CCN(c2ccc(NC(=O)c3c[nH]c4ccccc4c3=O)c(C(F)(F)F)c2)CC1` [Compound 639, N-[4-(4-isopropylpiperazin-1-yl)-2-(trifluoromethyl)phenyl]-4-oxo-1H-quinoline-3-carboxamide], for which the EC50 is < 10 µM and the “% Activity” value is given as “++ (between 25% to 100%)”.

In the case of `Cc1ccc2c(=O)c(C(=O)Nc3cc(O)c(C(C)(C)C)cc3C(C)(C)C)c[nH]c2c1` [Compound 640, N-(5-hydroxy-2,4-ditert-butyl-phenyl)-7-methyl-4-oxo-1H-quinoline-3-carboxamide], the EC50 was < 10 µM and the “% Activity” value is listed as “+++ (>100%)”.

For the molecule `CCOc1cccc2c(=O)c(C(=O)Nc3cc4[nH]ccc4cc3C(C)(C)C)c[nH]c12` [Compound 641, 8-ethoxy-4-oxo-N-(5-tert-butyl-1H-indol-6-yl)-1H-quinoline-3-carboxamide], the EC50 lay in the range of 10 to 25 µM and the “% Activity” value was “+ (<25%)”.

As for `COc1ccc2c(=O)c(C(=O)Nc3ccc(N4CCC[C@@H]4C)cc3C(F)(F)F)c[nH]c2c1` [Compound 642, (S)-7-methoxy-N-(4-(2-methylpyrrolidin-1-yl)-2-(trifluoromethyl)phenyl)-4-oxo-1,4-dihydroquinoline-3-carboxamide], the EC50 was < 10 µM and the “% Activity” value is reported as “++ (between 25% to 100%)”.

As for `Cc1cccc2[nH]cc(C(=O)Nc3ccc(N4CCCC(C)C4)cc3C(F)(F)F)c(=O)c12` (centres unmarked) [Compound 643, 5-methyl-N-[4-(3-methyl-1-piperidyl)-2-(trifluoromethyl)phenyl]-4-oxo-1H-quinoline-3-carboxamide], the EC50 was < 10 µM and the “% Activity” value is given as “++ (between 25% to 100%)”.

For `Cc1cccc2c(=O)c(C(=O)Nc3cc4[nH]ccc4cc3C(C)(C)C)c[nH]c12` [Compound 644, 8-methyl-4-oxo-N-(5-tert-butyl-1H-indol-6-yl)-1H-quinoline-3-carboxamide], the EC50 was < 10 µM and the “% Activity” value is “+ (<25%)”.

In the case of `CC(C)(C)c1ccc(NC(=O)c2c[nH]c3ccccc3c2=O)cc1F` [Compound 645, N-(3-fluoro-4-tert-butyl-phenyl)-4-oxo-1H-quinoline-3-carboxamide], the EC50 is < 10 µM and the “% Activity” value is reported as “++ (between 25% to 100%)”.

As to `CC(C)(C)c1cc2cc[nH]c2cc1NC(=O)c1c[nH]c2cc(F)c(F)cc2c1=O` [Compound 646, 6,7-difluoro-4-oxo-N-(5-tert-butyl-1H-indol-6-yl)-1H-quinoline-3-carboxamide], the EC50 is < 10 µM and the “% Activity” value is “++ (between 25% to 100%)”.

In the case of `Cc1cc(C2CCCCC2)ccc1NC(=O)c1c[nH]c2ccccc2c1=O` [Compound 647, N-(4-cyclohexyl-2-methyl-phenyl)-4-oxo-1H-quinoline-3-carboxamide], the EC50 was < 10 µM and the “% Activity” value was “++ (between 25% to 100%)”.

Take `CCc1cc(C(C)(C)C)c(O)cc1NC(=O)c1c[nH]c2ccc(F)cc2c1=O` [Compound 649, N-(2-ethyl-5-hydroxy-4-tert-butyl-phenyl)-6-fluoro-4-oxo-1H-quinoline-3-carboxamide]: the EC50 is < 10 µM and the “% Activity” value is reported as “++ (between 25% to 100%)”.

`O=C(Nc1ccc(C(F)(F)F)c(O)c1)c1c[nH]c2ccc(F)cc2c1=O` [Compound 650, 6-fluoro-N-[3-hydroxy-4-(trifluoromethyl)phenyl]-4-oxo-1H-quinoline-3-carboxamide]: the EC50 is < 10 µM and the “% Activity” value is “++ (between 25% to 100%)”.

`O=C(Nc1ccc(C2CCCCC2)c(O)c1)c1c[nH]c2ccc(F)cc2c1=O` [Compound 651, N-(4-cyclohexyl-3-hydroxy-phenyl)-6-fluoro-4-oxo-1H-quinoline-3-carboxamide]: the EC50 was < 10 µM and the “% Activity” value is “++ (between 25% to 100%)”.

With `CC(C)(C)c1cc(C(C)(C)C)c(NC(=O)c2c[nH]c3cc(O)ccc3c2=O)cc1O` [Compound 652, 7-hydroxy-N-(5-hydroxy-2,4-ditert-butyl-phenyl)-4-oxo-1H-quinoline-3-carboxamide], the EC50 was < 10 µM and the “% Activity” value is listed as “++ (between 25% to 100%)”.

For `O=C(Nc1cc(OCc2ccccc2)c(C2CCCCC2)cc1C(F)(F)F)c1c[nH]c2ccccc2c1=O` [Compound 654, N-[5-benzyloxy-4-cyclohexyl-2-(trifluoromethyl)phenyl]-4-oxo-1H-quinoline-3-carboxamide], the EC50 was < 10 µM and the “% Activity” value is listed as “++ (between 25% to 100%)”.

As to `O=C(Nc1ccc(N2CC[C@H](O)C2)cc1C(F)(F)F)c1c[nH]c2ccccc2c1=O` [Compound 655, (S)-N-(4-(3-hydroxypyrrolidin-1-yl)-2-(trifluoromethyl)phenyl)-4-oxo-1,4-dihydroquinoline-3-carboxamide], the EC50 is < 10 µM and the “% Activity” value was “++ (between 25% to 100%)”.

As to `CC(C)(C)c1cc2cc[nH]c2cc1NC(=O)c1c[nH]c2cccc(F)c2c1=O` [Compound 656, 5-fluoro-4-oxo-N-(5-tert-butyl-1H-indol-6-yl)-1H-quinoline-3-carboxamide], the EC50 was < 10 µM and the “% Activity” value is “++ (between 25% to 100%)”.

In the case of `CC(C)c1ccc(NC(=O)c2c[nH]c3ccc(Cl)cc3c2=O)c(C(F)(F)F)c1` [Compound 657, 6-chloro-N-[4-isopropyl-2-(trifluoromethyl)phenyl]-4-oxo-1H-quinoline-3-carboxamide], the EC50 is < 10 µM and the “% Activity” value was “++ (between 25% to 100%)”.

Source of the values: US8614327B2 (Vertex Pharmaceuticals Incorporated, priority 2004, dated 2013).
